This is an account of results in US9145415B2, “Nitrogen-containing heterocyclic compound or salt thereof” (FUJIFILM Corporation, priority 2012, dated 2015).

The target in assay [1] is T1, human FLT3 protein (FLT3 (WT)) (Homo sapiens, UniProt P36888).
T1 construct: human FLT3 protein (intracellular region, 564 to 993 aa); GST; purchased Carna Biosciences; host or cells: baculovirus expression system
T1 sequence (P36888 564-993): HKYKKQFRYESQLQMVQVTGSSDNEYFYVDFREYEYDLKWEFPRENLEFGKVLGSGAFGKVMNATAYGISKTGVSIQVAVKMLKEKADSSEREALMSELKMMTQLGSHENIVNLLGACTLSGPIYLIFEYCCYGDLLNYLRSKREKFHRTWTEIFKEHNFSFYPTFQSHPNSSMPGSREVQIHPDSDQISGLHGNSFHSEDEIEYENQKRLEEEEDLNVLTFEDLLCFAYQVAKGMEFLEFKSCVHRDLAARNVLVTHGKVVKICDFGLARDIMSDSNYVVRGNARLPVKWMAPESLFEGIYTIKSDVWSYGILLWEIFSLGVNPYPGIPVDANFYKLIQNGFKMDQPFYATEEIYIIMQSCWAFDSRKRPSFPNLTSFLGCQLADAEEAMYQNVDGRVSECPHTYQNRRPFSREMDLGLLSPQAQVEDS
In words: FLT3 inhibition test (FLT3 enzyme inhibition, time-resolved fluorescence of substrate peptide phosphorylation). It is filed as biochemical. The following applies: GST-fused human FLT3 (564 to 993 aa), ATP 50 μM; read-out: FLT3 (WT) enzyme inhibition activity. The gist of the method: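 Wild-type human FLT3 (1.2 μg) pre-incubated with compound 15 min at 25° C in 100 mM HEPES pH 7.5, 10 mM MgCl2, 25 mM NaCl, 1 mM DTT. Reaction started with substrate peptide and ATP (final 50 μM), run 30 min at 25° C; phosphorylation read by time-resolved fluorescence.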

Assay [2] has as its system MV4-11 cells. The assay is described as follows: Leukemia cell proliferation inhibition test (ATPlite), MV4-11. It is filed as cell-based. The following applies: Homo sapiens, MV4-11, 72 h, MV4-11, 72 hours culture, ATPlite; GI50 per method; read-out: MV4-11 cell proliferation inhibition effect. The gist of the method:
(§1)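 Luminescent ATP read-out (firefly luciferase) used as a total cell count after 72 h compound exposure at 37° C, 5% CO2. Cells: 10,000/well in RPMI + 10% FBS. GI50 = 50% inhibition relative to 0.1% DMSO, from a sigmoid dose-response fit; duplicates.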

For assay [3], the system named is Molm-13 cells. In words: Leukemia cell proliferation inhibition test (ATPlite), Molm-13. It is filed as cell-based. To be noted: Homo sapiens, MOLM-13, 72 h, Molm-13, 72 hours culture, ATPlite; GI50 per method; read-out: MOLM13 cell proliferation inhibition effect. In a few lines:
as §1
Background: In ATP-based viability assays light output follows the ATP content of the culture.

`CC(C)CN(C)c1nc(Nc2ccc(C#N)cc2)ncc1C#CCCCNC(=O)[C@H](C)N(C)C(=O)/C=C/CN(C)C` [Compound 10-15]: the IC50 in assay [1], in assay [2] and in assay [3] was < 10 nM in each case.
For the compound `CCCN(CCC)c1nc(Nc2ccc(C#N)cc2)ncc1C#CCCCNC(=O)[C@H](C)N(C)C(=O)/C=C/CN(C)C` [Compound 10-16], the IC50 in assay [1], in assay [2] and in assay [3] was < 10 nM throughout.
Take `CN(C)C/C=C/C(=O)N(C)CC(=O)NCCCC#Cc1cnc(Nc2ccc(F)cc2)nc1N1CCOCC1` [Compound 10-17]: the IC50 in assay [1] is < 10 nM; in assay [2] it was < 10 nM; in assay [3], 10 to 100 nM.
Consider `CN(C)C/C=C/C(=O)N(C)CC(=O)NCCCC#Cc1cnc(Nc2ccc(F)cc2)nc1NCC1CCOCC1` [Compound 10-18], for which the IC50 in assay [1], in assay [2] and in assay [3] was < 10 nM each time.
In the case of `COc1ccc(Nc2nc(Nc3ccc(F)cc3)ncc2C#CCCCNC(=O)CN(C)C(=O)/C=C/CN(C)C)cc1` [Compound 10-19], the IC50 in assay [1], in assay [2] and in assay [3] was < 10 nM each time.
For the compound `COc1ccc(Nc2nc(Nc3ccc(F)cc3)ncc2C#CCCCNC(=O)CN(C)C(=O)/C=C/CN(C)C)cn1` [Compound 10-20], the IC50 in assay [1], in assay [2] and in assay [3] was < 10 nM in each case.
With `CN(C)C/C=C/C(=O)N(C)CC(=O)NCCCC#Cc1cnc(Nc2ccc(F)cc2)nc1NCCCF` [Compound 10-21], the IC50 in assay [1], in assay [2] and in assay [3] was < 10 nM throughout.
In the case of `CCCN(CCC)c1nc(Nc2ccc(F)cc2)ncc1C#CCCCNC(=O)CN(C)C(=O)/C=C/CN(C)C` [Compound 10-22], the IC50 in assay [1], in assay [2] and in assay [3] was < 10 nM each time.
As for `Cc1ccc(Nc2nc(Nc3ccc(C#N)cc3)ncc2C#CCCCNC(=O)[C@H](C)N(C)C(=O)/C=C/CN(C)C)cc1` [Compound 10-23], the IC50 in assay [1], in assay [2] and in assay [3] was < 10 nM throughout.
For `CC(C)CNc1nc(Nc2ccc(C#N)cc2)ncc1C#CCCCNC(=O)[C@H](C)N(C)C(=O)/C=C/CN(C)C` [Compound 10-24], the IC50 in assay [1], in assay [2] and in assay [3] was < 10 nM throughout.
Regarding `C[C@@H](C(=O)NCCCC#Cc1cnc(Nc2ccc(C#N)cc2)nc1NC1CC1)N(C)C(=O)/C=C/CN(C)C` [Compound 10-25], the IC50 in assay [1], in assay [2] and in assay [3] was < 10 nM each time.
As to `COCCCNc1nc(Nc2ccc(F)cc2)ncc1C#CCCCNC(=O)[C@H](C)N(C)C(=O)/C=C/CN(C)C` [Compound 10-26], the IC50 is < 10 nM in assay [1], < 10 nM in assay [2] and 10 to 100 nM in assay [3].
`COCCCNc1nc(Nc2ccc(F)cc2)ncc1C#CCCCNC(=O)CN(C)C(=O)/C=C/CN(C)C` [Compound 10-27]: the IC50 in assay [1], in assay [2] and in assay [3] was < 10 nM in each case.
As for `C[C@@H](C(=O)NCCCC#Cc1cnc(Nc2ccc(F)cc2)nc1N1CCN(C)CC1)N(C)C(=O)/C=C/CN(C)C` [Compound 10-28], the IC50 is < 10 nM in assay [1], < 10 nM in assay [2] and 10 to 100 nM in assay [3].
Turning to `C[C@@H](C(=O)NCCCC#Cc1cnc(Nc2ccc(C#N)cc2)nc1NCCCF)N(C)C(=O)/C=C/CN(C)C` [Compound 10-29], the IC50 in assay [1], in assay [2] and in assay [3] was < 10 nM each time.
For `COCCCNc1nc(Nc2ccc(F)nc2)ncc1C#CCCCNC(=O)[C@H](C)N(C)C(=O)/C=C/CN(C)C` [Compound 10-30], the IC50 in assay [1] is < 10 nM; in assay [2], < 10 nM; in assay [3] it was 10 to 100 nM.
On to `COCCCNc1nc(Nc2ccc(F)nc2)ncc1C#CCCCNC(=O)CN(C)C(=O)/C=C/CN(C)C` [Compound 10-31], for which the IC50 in assay [1] is < 10 nM; in assay [2] it was < 10 nM; in assay [3], 10 to 100 nM.
Turning to `CC[C@@H](C(=O)NCCCC#Cc1cnc(Nc2ccc(F)nc2)nc1Nc1cccc(F)c1)N(C)C(=O)/C=C/CN(C)C` [Compound 10-32], the IC50 in assay [1], in assay [2] and in assay [3] was < 10 nM in each case.
In the case of `C[C@@H](C(=O)NCCCC#Cc1cnc(Nc2ccc(F)nc2)nc1NCC(F)(F)F)N(C)C(=O)/C=C/CN(C)C` [Compound 10-33], the IC50 in assay [1], in assay [2] and in assay [3] was < 10 nM in each case.
`C[C@@H](C(=O)NCCCC#Cc1cnc(Nc2ccc(F)nc2)nc1NCCCF)N(C)C(=O)/C=C/CN(C)C` [Compound 10-34]: the IC50 in assay [1], in assay [2] and in assay [3] was < 10 nM in each case.
Turning to `CC[C@@H](C(=O)NCCCC#Cc1cnc(Nc2ccc(F)nc2)nc1NCC(F)(F)F)N(C)C(=O)/C=C/CN(C)C` [Compound 10-35], the results for the IC50 in assay [1], in assay [2] and in assay [3] were < 10 nM, < 10 nM and 10 to 100 nM, respectively.
`CN(C)C/C=C/C(=O)N(C)CC(=O)NCCCC#Cc1cnc(Nc2ccc(F)nc2)nc1NCC(F)(F)F` [Compound 10-36]: the IC50 in assay [1], in assay [2] and in assay [3] was < 10 nM each time.
Regarding `CC[C@@H](C(=O)NCCCC#Cc1cnc(Nc2ccc(F)nc2)nc1Nc1ccc(OC)cc1)N(C)C(=O)/C=C/CN(C)C` [Compound 10-37], the IC50 in assay [1], in assay [2] and in assay [3] was < 10 nM each time.
Take `C[C@@H](C(=O)NCCCC#Cc1cnc(Nc2ccc(F)cc2)nc1N1CCCCC1)N(C)C(=O)/C=C/CN(C)C` [Compound 10-38]: the IC50 in assay [1] is < 10 nM; in assay [2] it was < 10 nM; in assay [3] it was 10 to 100 nM.
Take `CC[C@@H](C(=O)NCCCC#Cc1cnc(Nc2ccc(F)cc2)nc1Nc1ccc(OC)nc1)N(C)C(=O)/C=C/CN(C)C` [Compound 10-39]: the IC50 in assay [1], in assay [2] and in assay [3] was < 10 nM throughout.
For `COc1ccc(Nc2nc(Nc3ccc(F)cc3)ncc2C#CCCCNC(=O)[C@H](C)N(C)C(=O)/C=C/CN(C)C)cn1` [Compound 10-40], the IC50 in assay [1], in assay [2] and in assay [3] was < 10 nM throughout.
Consider `C[C@@H](C(=O)NCCCC#Cc1cnc(Nc2ccc(C#N)cc2)nc1N1CCC(F)CC1)N(C)C(=O)/C=C/CN(C)C` [Compound 10-41], for which the IC50 in assay [1], in assay [2] and in assay [3] was < 10 nM each time.
As for `C[C@@H](C(=O)NCCCC#Cc1cnc(Nc2ccc(C#N)cc2)nc1N1CCC(F)(F)C1)N(C)C(=O)/C=C/CN(C)C` [Compound 10-42], the IC50 in assay [1], in assay [2] and in assay [3] was < 10 nM in each case.
For the compound `C[C@@H](C(=O)NCCCC#Cc1cnc(Nc2ccc(C#N)cc2)nc1N1CCC(F)(F)CC1)N(C)C(=O)/C=C/CN(C)C` [Compound 10-43], the IC50 was < 10 nM in assay [1], 10 to 100 nM in assay [2] and 10 to 100 nM in assay [3].
Turning to `C[C@@H](C(=O)NCCCC#Cc1cnc(Nc2ccc(C#N)cc2)nc1N1CCCC(F)(F)C1)N(C)C(=O)/C=C/CN(C)C` [Compound 10-44], the IC50 in assay [1], in assay [2] and in assay [3] was < 10 nM throughout.
`CNc1nc(Nc2ccc(C#N)cc2)ncc1C#CCCCNC(=O)[C@H](C)N(C)C(=O)/C=C/CN(C)C` [Compound 10-45]: the IC50 in assay [1], in assay [2] and in assay [3] was < 10 nM each time.
As for `CCNc1nc(Nc2ccc(C#N)cc2)ncc1C#CCCCNC(=O)[C@H](C)N(C)C(=O)/C=C/CN(C)C` [Compound 10-46], the IC50 in assay [1], in assay [2] and in assay [3] was < 10 nM in each case.
Take `C[C@@H](C(=O)NCCCC#Cc1cnc(Nc2ccc(C#N)cc2)nc1NC1CCC1)N(C)C(=O)/C=C/CN(C)C` [Compound 10-47]: the IC50 in assay [1], in assay [2] and in assay [3] was < 10 nM each time.
`C[C@@H](C(=O)NCCCC#Cc1cnc(Nc2ccc(C#N)cc2)nc1NC1CCCC1)N(C)C(=O)/C=C/CN(C)C` [Compound 10-48]: the IC50 in assay [1], in assay [2] and in assay [3] was < 10 nM each time.
Consider `COCCCNc1nc(Nc2ccc(C#N)cc2)ncc1C#CCCCNC(=O)[C@H](C)N(C)C(=O)/C=C/CN(C)C` [Compound 10-49], for which the IC50 in assay [1], in assay [2] and in assay [3] was < 10 nM in each case.
